Experimental data reported in US9725442B2, “Heterocyclic derivative having PGD2 receptor antagonist activity” (Shionogi & Co., Ltd., priority 2011, dated 2017).
Where two headings read alike, the source gives them in different places.

Tests used:
Human DP1 receptor = Human DP1 receptor (Homo sapiens (Human), UniProt Q13258); assay: Human DP1 inhibitory activity in DP1-expressing cell (PGD2-induced cAMP); assay type: cell-based; conditions: category of cAMP IC50, human DP1 receptor expressing Jurkut cell
Description: Compounds were categorized as AA (cAMP is less than 100 nM) and A (cAMP is more than 100 nM and less than 5000 nM) as shown in Table 99 and 100.

CRTH2 = CRTH2 (Homo sapiens (Human), UniProt Q9Y5Y4); assay: CRTH2 receptor binding inhibitory activity ([3H]-PGD2 displacement, membranes of CRTH2-expressing K562 cell); conditions: [3H]-PGD2 displacement, membrane of CRTH2-expressing K562 cell, read-out: Ki
Description: Cell membrane was prepared from CRTH2-expressing K562 cell. The cell membrane (20 μg/well) was mixed with reaction buffer (50 mM Tris/HCl, pH 7.4, 10 mM MgCl2). Then, [^3H]-PGD2 was added to the mixture and incubated for 60 min at room temperature. […] Then, the mixture was filtrated with glass paper immediately. The filter paper was washed several times and radio activity on the filter was measured. Specific binding was defined as difference between total and non-specific binding (radio activity with 10 μM PGD2). Ki values for each compound were calculated from displacement curve.

[1] = CRTH2 receptor binding, categorized AAAA/AAA

Chain of CRTH2 (Q9Y5Y4 whole entry): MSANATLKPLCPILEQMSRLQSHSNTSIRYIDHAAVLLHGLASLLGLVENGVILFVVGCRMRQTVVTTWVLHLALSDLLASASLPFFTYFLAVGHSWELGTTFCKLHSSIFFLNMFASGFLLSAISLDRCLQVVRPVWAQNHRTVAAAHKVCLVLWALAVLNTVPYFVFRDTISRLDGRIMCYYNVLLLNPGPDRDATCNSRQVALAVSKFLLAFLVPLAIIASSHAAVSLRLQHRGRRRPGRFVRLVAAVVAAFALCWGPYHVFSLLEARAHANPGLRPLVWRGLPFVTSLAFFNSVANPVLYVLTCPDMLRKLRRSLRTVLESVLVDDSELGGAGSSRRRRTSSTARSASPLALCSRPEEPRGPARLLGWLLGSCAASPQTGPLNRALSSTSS
Chain of Human DP1 receptor (Q13258 whole entry): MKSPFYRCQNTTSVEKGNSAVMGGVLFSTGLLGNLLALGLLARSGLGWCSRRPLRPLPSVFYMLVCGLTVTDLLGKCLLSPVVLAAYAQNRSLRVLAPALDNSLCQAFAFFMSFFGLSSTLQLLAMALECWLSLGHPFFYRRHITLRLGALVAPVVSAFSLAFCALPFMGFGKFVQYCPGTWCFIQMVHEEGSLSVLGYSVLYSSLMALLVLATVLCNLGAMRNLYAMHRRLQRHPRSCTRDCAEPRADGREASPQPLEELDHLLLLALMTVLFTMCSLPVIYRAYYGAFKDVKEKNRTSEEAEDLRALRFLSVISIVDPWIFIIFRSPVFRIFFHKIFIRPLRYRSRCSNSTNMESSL

Row | IC50 (Human DP1 receptor) | Ki (CRTH2; [1]) | Ki (CRTH2) | Compound
1 | < 100 nM | < 100 nM | – | CCOc1ccc(S(=O)(=O)N2C[C@@H](C)[C@@H](n3nc(CC(=O)O)c4ccc(C)cc43)C2)cc1 [Compound I-109]
2 | < 100 nM | < 100 nM | – | Cc1ccc2c(CC(=O)O)nn([C@H]3CN(S(=O)(=O)c4ccc(OC(F)F)cc4)C[C@H]3C)c2c1 [Compound I-110]
3 | < 100 nM | < 100 nM | – | CCOc1ccc(S(=O)(=O)N2C[C@@H](C)[C@@H](n3nc(CC(=O)O)c4ccc(C)cc43)C2)cn1 [Compound I-111]
4 | < 100 nM | < 100 nM | – | COc1ccc(S(=O)(=O)N2C[C@@H](C)[C@@H](n3nc(CC(=O)O)c4ccc(F)cc43)C2)cc1 [Compound I-112]
5 | < 100 nM | < 100 nM | 17 nM | C[C@@H]1CN(S(=O)(=O)c2ccc(C3CC3)cc2)C[C@@H]1n1nc(CC(=O)O)c2ccc(F)cc21 [Compound I-113]
6 | < 100 nM | < 100 nM | – | Cc1ccc2c(CC(=O)O)nn([C@H]3CN(S(=O)(=O)c4ccc(OC(C)C)cc4)C[C@@H]3C)c2c1 [Compound I-114]
7 | < 100 nM | < 100 nM | – | CC(C)Oc1ccc(S(=O)(=O)N2C[C@H](C)[C@@H](n3nc(CC(=O)O)c4ccccc43)C2)cc1 [Compound I-115]
8 | 100 to 5000 nM | < 100 nM | – | COc1ccc(S(=O)(=O)N2C[C@@H](C)[C@@H](n3nc(CC(=O)O)c4ccc(F)cc43)C2)cn1 [Compound I-116]
9 | 100 to 5000 nM | < 100 nM | 1.6 nM | Cc1ccc(S(=O)(=O)N2C[C@@H](C)[C@@H](n3nc(CC(=O)O)c4ccc(F)cc43)C2)cc1 [Compound I-117]
10 | < 100 nM | < 100 nM | – | CCc1ccc(S(=O)(=O)N2C[C@@H](C)[C@@H](n3nc(CC(=O)O)c4ccc(F)cc43)C2)cc1 [Compound I-118]
11 | 100 to 5000 nM | < 100 nM | – | C[C@@H]1CN(S(=O)(=O)c2ccc(C(F)(F)F)cc2)C[C@@H]1n1nc(CC(=O)O)c2ccc(F)cc21 [Compound I-119]
12 | < 100 nM | < 100 nM | – | C[C@@H]1CN(S(=O)(=O)c2ccc(OC(F)(F)F)cc2)C[C@@H]1n1nc(CC(=O)O)c2ccc(F)cc21 [Compound I-120]
13 | 100 to 5000 nM | < 100 nM | – | C[C@@H]1CN(S(=O)(=O)c2ccccc2Cl)C[C@@H]1n1nc(CC(=O)O)c2ccc(F)cc21 [Compound I-121]
14 | 100 to 5000 nM | < 100 nM | 2.5 nM | C[C@@H]1CN(S(=O)(=O)c2cccc(Cl)c2)C[C@@H]1n1nc(CC(=O)O)c2ccc(F)cc21 [Compound I-122]
15 | 100 to 5000 nM | < 100 nM | – | C[C@@H]1CN(S(=O)(=O)c2ccccc2C#N)C[C@@H]1n1nc(CC(=O)O)c2ccc(F)cc21 [Compound I-124]
16 | 100 to 5000 nM | < 100 nM | – | CCOc1cc(F)c(S(=O)(=O)N2C[C@@H](C)[C@@H](n3nc(CC(=O)O)c4ccc(F)cc43)C2)c(F)c1 [Compound I-125]
17 | < 100 nM | < 100 nM | – | CCc1ccc(S(=O)(=O)N2C[C@@H](C)[C@@H](n3nc(CC(=O)O)c4ccc(C(F)(F)F)cc43)C2)cc1 [Compound I-126]
18 | < 100 nM | < 100 nM | – | C[C@@H]1CN(S(=O)(=O)c2ccc(OC(F)F)cc2)C[C@@H]1n1nc(CC(=O)O)c2ccc(C(F)(F)F)cc21 [Compound I-127]
19 | < 100 nM | < 100 nM | – | COc1ccc(S(=O)(=O)N2C[C@@H](C)[C@@H](n3nc(CC(=O)O)c4ccc(C(F)(F)F)cc43)C2)cc1 [Compound I-128]
20 | < 100 nM | < 100 nM | – | CCOc1ccc(S(=O)(=O)N2C[C@@H](C)[C@@H](n3nc(CC(=O)O)c4ccc(C(F)(F)F)cc43)C2)cc1 [Compound I-129]

Row | IC50 (Human DP1 receptor) | Ki (CRTH2; [1]) | Ki (CRTH2) | Compound
21 | < 100 nM | < 100 nM | – | CCOc1ccc(S(=O)(=O)N2C[C@@H](C)[C@@H](n3nc(CC(=O)O)c4ccc(C(F)(F)F)cc43)C2)cn1 [Compound I-132]
22 | 100 to 5000 nM | 100 to 5000 nM | – | CC(C)Oc1ccc(S(=O)(=O)N2C[C@H](n3nc(CC(=O)O)c4cccc(F)c43)C[C@@H]2C(F)F)cc1 [Compound I-133]
23 | < 100 nM | < 100 nM | – | C[C@@H]1CN(S(=O)(=O)c2ccc(OC(F)F)cc2)C[C@@H]1n1nc(CC(=O)O)c2ccc(Cl)cc21 [Compound I-134]
24 | < 100 nM | < 100 nM | – | CC(C)Oc1ccc(S(=O)(=O)N2C[C@@H](C)[C@@H](n3nc(CC(=O)O)c4ccc(Cl)cc43)C2)cc1 [Compound I-135]
25 | 100 to 5000 nM | 100 to 5000 nM | – | C[C@H]1CN(S(=O)(=O)c2ccc(OC(F)F)cc2)C[C@H]1n1nc(CC(=O)O)c2ccc(F)cc21 [Compound I-136]
26 | < 100 nM | < 100 nM | – | CCOc1ccc(S(=O)(=O)N2C[C@@H](C)[C@@H](n3nc(CC(=O)O)c4ccc(Cl)cc43)C2)cc1 [Compound I-137]
27 | 100 to 5000 nM | < 100 nM | 65 nM | CC(C)Oc1ccc(S(=O)(=O)N2C[C@@H](C)[C@@H](n3nc(CC(=O)NS(C)(=O)=O)c4ccc(F)cc43)C2)cc1 [Compound I-138]
28 | < 100 nM | < 100 nM | 32 nM | CC(C)Oc1ccc(S(=O)(=O)N2C[C@@H](C)[C@@H](n3nc(CC(=O)NC#N)c4ccc(F)cc43)C2)cc1 [Compound I-139]
29 | < 100 nM | < 100 nM | – | COc1ccc(S(=O)(=O)N2C[C@@H](C)[C@@H](n3nc(CC(=O)O)c4ccc(Cl)cc43)C2)cc1 [Compound I-140]
30 | < 100 nM | < 100 nM | – | CCc1ccc(S(=O)(=O)N2C[C@@H](C)[C@@H](n3nc(CC(=O)O)c4ccc(Cl)cc43)C2)cc1 [Compound I-141]
31 | < 100 nM | < 100 nM | – | CCOc1ccc(S(=O)(=O)N2C[C@@H](C)[C@@H](n3nc(CC(=O)O)c4ccc(Cl)cc43)C2)cn1 [Compound I-143]
32 | 100 to 5000 nM | < 100 nM | 3.1 nM | CC(C)Oc1ccc(S(=O)(=O)N2C[C@@H](C)[C@@H](n3nc(CC(=O)O)c4cccnc43)C2)cc1 [Compound I-145]
33 | < 100 nM | < 100 nM | – | CC(C)Oc1ccc(S(=O)(=O)N2C[C@@H](C)[C@@H](n3nc(CC(=O)O)c4ccc(Cl)cc43)C2)cn1 [Compound I-146]
34 | < 100 nM | < 100 nM | – | CCOc1ccc(S(=O)(=O)N2C[C@@H](C)[C@@H](n3nc(CC(=O)O)c4ccc(F)cc43)C2)c(F)c1 [Compound I-147]
35 | 100 to 5000 nM | < 100 nM | 5.6 nM | CC(C)Oc1ccc(S(=O)(=O)N2C[C@@H](C)[C@@H](n3cc(CC(=O)O)c4cccnc43)C2)cc1 [Compound I-148]
36 | 100 to 5000 nM | < 100 nM | 4.8 nM | CC(C)Oc1ccc(S(=O)(=O)N2C[C@@H](C)[C@@H](n3nc(CC(=O)O)c4ccc(F)cc43)C2)nc1 [Compound I-149]
37 | < 100 nM | < 100 nM | – | CCCCOc1ccc(S(=O)(=O)N2C[C@@H](C)[C@@H](n3nc(CC(=O)O)c4ccccc43)C2)cc1 [Compound I-151]
38 | 100 to 5000 nM | < 100 nM | 56 nM | C[C@@H]1CN(S(=O)(=O)c2cc3ccccc3s2)C[C@@H]1n1nc(CC(=O)O)c2ccccc21 [Compound I-152]
39 | < 100 nM | < 100 nM | 65 nM | CC1Cc2cc(S(=O)(=O)N3C[C@@H](C)[C@@H](n4nc(CC(=O)O)c5ccccc54)C3)ccc2O1 (stereo partly shown) [Compound I-153]
